Where two headings read alike, the source gives them in different places.
What was measured:
HeLa = experiment: Cytostatic assay, HeLa cells; format: cell-based; conditions: Homo sapiens, HeLa; for CC50: Table 1, read-out: CC50 HeLa; for IC50: Table 6, read-out: IC50 HeLa
Source text: (§1) The cell lines employed were L1210/0 (a leukemia cell line), FM3A/0 (a breast cancer cell line), Cem/0 (an acute lymphoblastic leukemia cell line) and HeLa (a cervical cell line).

HeLa/TK^− = experiment: Cytostatic assay, HeLa/TK^− cells; format: cell-based; conditions: Homo sapiens, HeLa; for CC50: Table 1, read-out: CC50 HeLa/TK^−; for IC50: Table 6, read-out: IC50 HeLa/TK^−
Source text: as §1

L1210.Hyor = experiment: Cytostatic assay, Mycoplasma hyorhinis-infected L1210 cells; conditions: for IC50: Mus musculus, L1210, read-out: IC50 L1210.Hyor; for IC50(L1210.Hyor)/IC50(L1210/0): Table 7
Procedure, shortened: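 Proliferation read by Coulter counting after 48 h exposure of compound-treated L1210 cells carrying M. hyorhinis infection (60,000 cells/well, DMEM with 10% FBS, 37 °C). Values also given as percent activity retained in infected cells.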

FM3A/0 = experiment: Cytostatic assay, FM3A/0 cells; format: cell-based; conditions: Mus musculus, FM3A/0, read-out: CC50 FM3A/0
Experimental: The samples were assayed for biological activity versus a range of tumour cell lines with data recorded in Table 1 below. […] The cell lines employed were L1210/0 (a leukemia cell line), FM3A/0 (a breast cancer cell line), Cem/0 (an acute lymphoblastic leukemia cell line) and HeLa (a cervical cell line).

L1210/0 = experiment: Cytostatic assay, L1210/0 cells; format: cell-based, murine; conditions: Mus musculus; for CC50: L1210/0, Table 1, read-out: CC50 L1210/0; for IC50: read-out: IC50 L1210/0
Source text: as §1

L1210/TK^− = experiment: Cytostatic assay, thymidine kinase-deficient L1210/TK^− cells; format: cell-based, murine; conditions: Mus musculus; for CC50: L1210, Table 1, read-out: CC50 L1210/TK^−; for IC50: L1210, Table 6, read-out: IC50 L1210/TK^−
Cem/TK^− = experiment: Cytostatic assay, thymidine kinase-deficient CEM/TK^− cells; format: cell-based, human; conditions: Homo sapiens, CEM-TK(-); for CC50: Table 1, read-out: CC50 Cem/TK^−; for IC50: Table 6, read-out: IC50 Cem/TK^−
Cem/0 = experiment: Cytostatic assay, CEM/0 cells; format: cell-based, human; conditions: Homo sapiens, CCRF-CEM; for CC50: Table 1, read-out: CC50 Cem/0; for IC50: Table 6, read-out: IC50 Cem/0
Source text: as §1

FM3A/TK^− = experiment: Cytostatic assay, FM3A/TK^− cells; format: cell-based; conditions: Mus musculus, read-out: CC50 FM3A/TK^−
[1] = Stability in human serum by in situ 31P NMR; format: in vitro ADME; conditions: 37° C., after 13 h and 30 min
Experimental: The stability of the prodrug CPF-373 in the presence of human serum was studied using in situ ^31P NMR (202 MHz). The ProTide CPF-373 (1) (5.0 mg) was dissolved in DMSO (0.05 mL) and D2O (0.15 mL). Then the sample was transferred into an NMR tube, which was inserted in the NMR chamber at 37° C. (with enough solvent to obtain a control NMR reading of the blank). Then 0.3 ml human serum was quickly added to the sample in the NMR tube. NMR experiments were programmed to record data every 15 minutes for 12 hours and 30 minutes. Because of excess noise and poor shimming profiles (most likely due to the biological media and concentration), individual spectra were further processed. After normal Fourier transform processing, each spectrum was deconvoluted (Lorentz-Gauss deconvolution) to reveal solely the frequency and area of spectral peaks without the baseline. Data recorded were processed and analysed with the Bruker Topspin 2.1 program.
Chemical stability studies on the prodrug CPF-373 (1) have been performed by exposing the compound to human serum and to aqueous buffers (pH 1.0 and 8.0) using in situ ^31P NMR. […]
The stability of compound CPF 386 in the presence of human serum was investigated using in situ ^31P NMR. A control ^31P NMR data of compound CPF 386 in DMSO and D2O were recorded. […] The ^31P NMR data were recorded every 15 minutes over 14 h. […]

human UP = human UP (Homo sapiens, UniProt Q16831); experiment: Phosphorolysis by human UP, HPLC; conditions: 100 μM compound, room temperature, 0-40 min
Sequence of human UP (Q16831 whole entry): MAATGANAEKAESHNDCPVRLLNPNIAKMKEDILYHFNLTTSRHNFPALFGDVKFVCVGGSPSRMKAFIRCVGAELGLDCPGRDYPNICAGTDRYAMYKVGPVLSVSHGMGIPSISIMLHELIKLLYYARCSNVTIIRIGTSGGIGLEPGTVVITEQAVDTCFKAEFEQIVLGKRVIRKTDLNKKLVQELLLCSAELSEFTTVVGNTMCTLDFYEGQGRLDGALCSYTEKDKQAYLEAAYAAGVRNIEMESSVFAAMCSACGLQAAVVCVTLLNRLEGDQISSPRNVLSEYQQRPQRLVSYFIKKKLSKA
Experimental: Reaction mixtures containing 100 μM test compound and recombinant TP or UP (human TP: 8.6 ng/μL; E. coli TP: 3.0 ng/μL; human UP: 4 ng/mL) in a total volume of 500 μL reaction buffer (10 mM TrisHCl; 300 μM NaCl; 1 mM EDTA; 2 mM KH2PO4/K2HPO4) were incubated at room temperature. At different time points (i.e. 0, 20, 40 min) 100 μL aliquots of the reaction mixtures were withdrawn and heated at 95° C. for 3 min to inactivate the enzyme. […] The separation of Urd from uracil was performed by a linear gradient from 100% separation buffer (see above) to 60% separation buffer+40% acetonitrile (3 min 100% separation buffer; 6 min linear gradient of 100% separation buffer to 60% separation buffer+40% acetonitrile; 6 min 60% separation buffer+40% acetonitrile, followed by equilibration at 100% separation buffer).

SMILES | CC50 (HeLa) | IC50 (HeLa) | CC50 (HeLa/TK^−) | IC50 (HeLa/TK^−) | IC50 (L1210.Hyor) | IC50(L1210.Hyor)/IC50(L1210/0) (L1210.Hyor) | CC50 (FM3A/0) | CC50 (L1210/0) | IC50 (L1210/0; L1210/0, Table 6) | IC50 (L1210/0; L1210/0, Table 7) | CC50 (L1210/TK^−) | IC50 (L1210/TK^−) | CC50 (Cem/TK^−) | IC50 (Cem/TK^−) | CC50 (Cem/0) | IC50 (Cem/0) | CC50 (FM3A/TK^−) | parent compound in reaction mixture with human serum [1] | Phosphorolysis by human UP (human UP)
CC(C)OC(=O)[C@H](C)NP(=O)(OC[C@H]1O[C@@H](n2cc(F)c(=O)[nH]c2=O)CC1O)Oc1ccccc1 (stereo partly drawn) [CPF 384, 5-Fluoro-2′deoxyuridine-5′-O-[phenyl(isopropoxy-L-alaninyl)] phosphate] | 710 ± 150 nM | 710 ± 150 nM | 25000 ± 11000 nM | 25000 ± 11000 nM | 700 ± 100 nM | 14 | 360 ± 250 nM | 76 ± 22 nM | 76 ± 22 nM | 50 ± 13 nM | 1100 ± 100 nM | 1100 ± 100 nM | 30000 ± 10000 nM | 30000 ± 10000 nM | 1000 ± 100 nM | 1000 ± 100 nM | 13000 ± 1000 nM |  | 
CCOC(=O)[C@H](C)NP(=O)(OC[C@H]1O[C@@H](n2cc(F)c(=O)[nH]c2=O)CC1O)Oc1cccc2ccccc12 (stereo partly drawn) [CPF 386, 5-Fluoro-2′deoxyuridine-5′-O-[1-naphthyl (ethoxy-L-alaninyl)] phosphate] | 220 ± 40 nM | 220 ± 40 nM | 2800 nM | 2800 nM | 95 ± 2.8 nM | 3.4 |  | 31 ± 5 nM | 31 ± 5 nM | 28 ± 2.1 nM | 360 ± 10 nM | 360 ± 10 nM | 1600 ± 200 nM | 1600 ± 200 nM | 250 ± 40 nM | 250 ± 40 nM |  | 96% | 
C[C@H](NP(=O)(OC[C@H]1O[C@@H](n2cc(F)c(=O)[nH]c2=O)CC1O)Oc1cccc2ccccc12)C(=O)OC1CCCCC1 (stereo partly drawn) [CPF 509, 5-Fluoro-2′deoxyuridine-5′-O-[1-naphthyl (cyclohexoxy-L-alaninyl)]phosphate] | 90 ± 14 nM | 90 ± 14 nM |  |  | 49 ± 4 nM | 1.4 | 310 ± 60 nM | 43 ± 23 nM | 43 ± 23 nM | 36 ± 17 nM | 150 nM | 150 nM |  | 1000 ± 100 nM | 57 ± 55 nM | 57 ± 55 nM |  |  | 
O=c1ccn([C@@H]2O[C@H](CO)[C@@H](O)[C@H]2O)c(=O)[nH]1 [uridine, reference compound] |  |  |  |  |  |  |  |  |  |  |  |  |  |  |  |  |  |  | converted to uracil

Reference: US10993957B2 (NuCana plc, priority 2011, dated 2021)
